What all share (experiment): NCI anticancer screen, dose series, 48 h
Assay [1] has as its system RXF 393.
The subject of assay [2] is K562.
Assay [3] deals with BT-549.
Assay [4] relates to SK-MEL-2.
Assay [5] deals with NCI-H23.
Assay [6] relates to HCT-116.
Assay [7] deals with UACC-62.
Assay [8] deals with SF-268.
The subject of assay [9] is Malme-3M.
The subject of assay [10] is CCRF-CEM.
Assay [11] concerns OVCAR-4.
Assay [12] relates to HT-29.
Assay [13] relates to DU-145.
For assay [14], the system named is EKVX.
Assay [15] concerns CAKI-1.
Assay [16] concerns NCI-H460.
Assay [17] deals with HCC 2998.
Assay [18] has as its system A549.
Assay [19] has as its system T47D.
For assay [20], the system named is KM12.

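Assay format: 96-well plates, 48-hour exposure. The concentration for 50% growth inhibition is given as GI50.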 Active and inactive are the calls of the source. Cut-off read from the data, not from the text of the source: active = GI50 up to about 1.1 µM and inactive = higher. A value given as a limit tells only on which side of the number the result lay.

On to `COC(=O)C1(Cc2ccc3c(c2)CCC3)Cc2ccc3c(c2C1=O)CCC3` (stereo not drawn), for which the GI50 in [1] is 2.11 µM (inactive); in assay [2], 3.37 µM (inactive); in assay [3], 5.68 µM (inactive); in assay [4] it was 4.32 µM (inactive); in assay [5], 6.62 µM (inactive); in [6] it was 3.66 µM (inactive). The GI50 was 3.84 µM (inactive) in [7]; 10 µM (inactive) in assay [8]; 4.02 µM (inactive) in assay [9]; 5.21 µM (inactive) in assay [10]; 7.73 µM (inactive) in [11]; 3.29 µM (inactive) in assay [12]. The GI50 in [13] is 33.6 µM (inactive); in [14], 11.1 µM (inactive); in assay [15] it was 5.45 µM (inactive); in [16], 12.7 µM (inactive); in [17] it was 6.95 µM (inactive); in assay [18], 9.48 µM (inactive). Further, the GI50 in [19] is 4.35 µM (inactive); in assay [20] it was 4.12 µM (inactive).
For the compound `CCCc1[nH]nc(C(N)=O)c1/N=N/N(C)C`, the GI50 in [1] was 41.5 µM (inactive); in assay [2], 2.56 µM (inactive); in [3], 24.3 µM (inactive); in assay [4], > 100 µM (inactive); in assay [5] it was 75.3 µM (inactive); in assay [6], 51.9 µM (inactive). For the same compound, the GI50 in [7] is 36.9 µM (inactive); in [8], 36.9 µM (inactive); in assay [9], 98.2 µM (inactive); in [10] it was 27 µM (inactive); in [11] it was 54.1 µM (inactive); in assay [12] it was 86.3 µM (inactive). Further, the GI50 in [13] was 49.5 µM (inactive); in assay [14] it was 26.3 µM (inactive); in assay [15], 28.4 µM (inactive); in assay [17], > 100 µM (inactive); in assay [18], 42.4 µM (inactive); in assay [19], 54 µM (inactive). In addition, in [20], the GI50 was 37.1 µM (inactive).
In the case of `COc1cccc(C2c3cc4c(cc3OC(C)(N3CCCC3)C2C)OCO4)c1OC` (stereo not drawn), the GI50 is 14.8 µM (inactive) in [1]; 6.15 µM (inactive) in assay [2]; 6.67 µM (inactive) in assay [3]; 7.74 µM (inactive) in [4]; 15 µM (inactive) in assay [5]; 4.3 µM (inactive) in assay [6]. In addition, the GI50 was 16.9 µM (inactive) in assay [7]; 10.9 µM (inactive) in [8]; 18.8 µM (inactive) in assay [9]; 4.85 µM (inactive) in assay [10]; 5.18 µM (inactive) in [11]; 5.14 µM (inactive) in assay [12]. Further, the GI50 is 10 µM (inactive) in [13]; 14.9 µM (inactive) in [14]; 5.06 µM (inactive) in [15]; 11.7 µM (inactive) in assay [16]; 19.1 µM (inactive) in assay [17]; 5.58 µM (inactive) in assay [18]. For the same compound, the GI50 in assay [19] is 4.24 µM (inactive); in assay [20] it was 6.78 µM (inactive).
Regarding `COc1ccc(C[C@H]2NC[C@H](OC(C)=O)[C@H]2OC(C)=O)cc1`, the GI50 in assay [1] was 0.144 µM (active); in assay [2], 0.221 µM (active); in assay [3], 0.171 µM (active); in assay [4], 0.184 µM (active); in [5], 0.179 µM (active); in assay [6], 0.105 µM (active). Also, the GI50 is 0.288 µM (active) in assay [7]; 0.0614 µM (active) in assay [8]; 0.158 µM (active) in assay [9]; 0.126 µM (active) in assay [10]; 0.104 µM (active) in [11]; 0.183 µM (active) in assay [12]. Also, the GI50 in assay [13] is 0.0726 µM (active); in assay [14] it was 0.136 µM (active); in [15] it was 0.144 µM (active); in assay [16] it was 0.172 µM (active); in assay [17], 0.115 µM (active); in [18] it was 0.151 µM (active). Also, the values for the GI50 in assay [19] and in assay [20] were 0.112 µM (active) and 0.192 µM (active), respectively.
As for `C[C@@H]1CCC2[C@@H](C)C(=O)O[C@@H]3C4C[C@@H]1[C@@]23OO[C@@]4(C)O` (stereo partly drawn), the GI50 in [1] is 60.3 µM (inactive); in assay [2], > 100 µM (inactive); in assay [3], > 100 µM (inactive); in assay [4], > 100 µM (inactive); in [5] it was 88.5 µM (inactive); in assay [6], 88.3 µM (inactive). Also, the GI50 was > 100 µM (inactive) in assay [7]; 76 µM (inactive) in assay [8]; > 100 µM (inactive) in assay [9]; 54.5 µM (inactive) in assay [10]; > 100 µM (inactive) in assay [11]; > 100 µM (inactive) in assay [12]. For the same compound, the GI50 is 71.4 µM (inactive) in [13]; 57.7 µM (inactive) in assay [14]; > 100 µM (inactive) in [15]; 52 µM (inactive) in assay [16]; > 100 µM (inactive) in assay [17]; > 100 µM (inactive) in assay [18]. The GI50 in assay [19] was 87.3 µM (inactive); in [20] it was > 100 µM (inactive).
For `O=S(=O)(O)c1cc(O)c2c(/N=C\c3ccccc3O)cc(S(=O)(=O)O)cc2c1`, the GI50 in [1] was > 100 µM (inactive); in [2] it was 86.5 µM (inactive); in [3], > 100 µM (inactive); in assay [4] it was > 100 µM (inactive); in assay [5], > 100 µM (inactive); in assay [6] it was > 100 µM (inactive). Also, the GI50 in assay [7], in assay [8], in assay [9], in assay [10], in assay [11] and in assay [12] was > 100 µM (inactive) each time. Besides, the GI50 in [13], in [14], in [15], in assay [16], in assay [17] and in assay [18] was > 100 µM (inactive) throughout. The GI50 was 82.6 µM (inactive) in [19] and > 100 µM (inactive) in assay [20].
Consider `Cc1cc(S(N)(=O)=O)c(SCc2nc(N)nc(N(C)C)n2)cc1Cl`, for which the GI50 in assay [1], in assay [2], in assay [3], in assay [4], in [5] and in [6] was > 10 µM (inactive) in each case. Besides, the GI50 in [8], in assay [9], in assay [10], in assay [11], in assay [12] and in assay [13] was > 10 µM (inactive) throughout. Moreover, the GI50 in assay [14], in assay [15], in [16], in [17], in [18] and in assay [19] was > 10 µM (inactive) throughout. Moreover, the GI50 in [20] is > 10 µM (inactive).
